Test results taken from the NIST ThermoML archive (doi:10.1016/j.fluid.2018.12.025).
Several values for one entry are separate records, joined by “and”; a condition that tells them apart may be missing. Equal entries are not always repeated.

Settings: 101.33 kPa, Liquid, transient hot wire

O [water]
Settings	thermal conductivity [W/m/K]
276.41 K	0.5538
300.61 K	0.6257
303.32 K	0.6103
306.14 K	0.6095
325.57 K	0.6581
329.48 K	0.6422
333.39 K	0.6498
350.97 K	0.6877
355.05 K	0.672
356 K	0.6781
356.22 K	0.6716
356.54 K	0.6823
356.76 K	0.6589
356.9 K	0.6827
360.47 K	0.6765
361.52 K	0.6756

CCCC[N+]1(C)CCCC1.O=S(=O)([N-]S(=O)(=O)C(F)(F)F)C(F)(F)F
Settings	thermal conductivity [W/m/K]
279.16 K	0.1159
294.59 K	0.115
306.65 K	0.1157
334.78 K	0.114
335.13 K	0.1143
338.98 K	0.1136
353.98 K	0.1153
362.23 K	0.1135
364.36 K	0.1142
383.56 K	0.1134
419.99 K	0.1126
438.07 K	0.1123

Cc1ccccc1 [toluene]
Settings	thermal conductivity
276.19 K	0.1359 W/m/K
278.42 K	0.1339 W/m/K
281.25 K	0.1324 W/m/K and 0.1325 W/m/K
302.05 K	0.129 W/m/K
304.59 K	0.1268 W/m/K
329.65 K	0.1235 W/m/K
331.24 K	0.1237 W/m/K
337.63 K	0.1242 W/m/K
339.65 K	0.122 W/m/K
339.85 K	0.1226 W/m/K
340.17 K	0.12 W/m/K
351.33 K	0.1166 W/m/K
351.55 K	0.12 W/m/K
352.25 K	0.1179 W/m/K

CCC[N+]1(C)CCCC1.O=S(=O)([N-]S(=O)(=O)C(F)(F)F)C(F)(F)F
Settings	thermal conductivity [W/m/K]
279.07 K	0.118
300.88 K	0.1176
318.32 K	0.1174
326.71 K	0.1167
340.17 K	0.1178
351.81 K	0.1166
354.65 K	0.1172
389.67 K	0.1162
408.29 K	0.1142
409.24 K	0.1156
434.89 K	0.115
435.53 K	0.1138
